Earlier results on three molecules are cited in US4380638A, “Chemical compounds” (Bristol-Myers Company, priority 1981, dated 1983).

One data set deals with peptic ulcer disease. The following applies: Gray et al., Lancet, 1, 8001 (1977).
For data set [1] the following is noted: agranulocytosis.
In data set [2] the test system is H2 -receptor.
In data set [3] the test system is H2 -receptor. The following applies: man.

On to `CNC(=S)NCCCCc1cnc[nH]1` [Burimamide], for which the oral absorption result is given as “poor”.

On to `CNC(=NC#N)NCCSCc1[nH]cnc1C` [Cimetidine], for which the “clinical effectiveness in peptic ulcer disease” value with peptic ulcer disease is recorded as “effective therapeutic agent in the treatment of peptic ulcer disease”. Moreover, the toxicity result in data set [1] is reported as “without producing agranulocytosis”. Moreover, the “H2-antagonist potency/effectiveness relative to another drug” value in the data set on H2 -receptor [2] is given as “as effective an H2 -antagonist as metiamide”.

On to `CNC(=S)NCCSCc1[nH]cnc1C` [Metiamide], for which the oral activity result in the data set on H2 -receptor [3] was “orally active in man”. In data set [1], the toxicity entry is reported as “agranulocytosis”. In addition, the “H2-antagonist potency/effectiveness relative to another drug” value in the data set on H2 -receptor [2] is given as “more potent than burimamide”.
